Experimental data from patent US10179771B2 (GALAPAGOS NV, priority 2014, dated 2019).

Key:
[1] = molecular target: T1, Recombinant human JAK1 catalytic domain (Homo sapiens, UniProt P23458); experiment: JAK1 inhibition assay (polyGT substrate / Ulight-JAK1 peptide assay); format: biochemical; conditions: Comparative Compounds (Table VI)
T1 construct: Recombinant human JAK1 (catalytic domain, amino acids 866-1154; catalog number PV4774); purchased Invitrogen PV4774
Method: Recombinant human JAK1 catalytic domain (amino acids 850-1154; catalog number 08-144) was purchased from Carna Biosciences. 10 ng of JAK1 is incubated with 12.5 μg polyGT substrate (Sigma catalog number P0275) in kinase reaction buffer (15 mM Tris-HCl pH 7.5, 1 mM DTT, 0.01% Tween-20, 10 mM MgCl2, 2 μM non-radioactive ATP, 0.25 ρCi ^33P-gamma-ATP (GE Healthcare, catalog number AH9968) final concentrations) with or without 5 μL containing test compound or vehicle (DMSO, 1% final concentration), in a total volume of 25 μL, in a polypropylene 96-well plate (Greiner, V-bottom). After 45 min at 30° C., reactions are stopped by adding of 25 μL/well of 150 mM phosphoric acid. All of the terminated kinase reaction is transferred to prewashed (75 mM phosphoric acid) 96 well filter plates (Perkin Elmer catalog number 6005177) using a cell harvester (Perkin Elmer). Plates are washed 6 times with 300 μL per well of a 75 mM phosphoric acid solution and the bottom of the plates is sealed. 40 μL/well of Microscint-20 is added, the top of the plates is sealed and readout is performed using the Topcount (Perkin Elmer). Kinase activity is calculated by subtracting counts per min (cpm) obtained in the presence of a positive control inhibitor (10 μM staurosporine) from cpm obtained in the presence of vehicle. The ability of a test compound to inhibit this activity is determined as:
(§1) [formula] • RFU test compound=RFU determined for sample with test compound present • RFU control=RFU determined for sample with positive control inhibitor • RFU vehicle=RFU determined in the presence of vehicle
(§2) Dose dilution series are prepared for the compounds enabling the testing of dose-response effects in the JAK1 assay and the calculation of the IC50 for each compound. Each compound is routinely tested at concentration of 20 μM followed by a 1/3 serial dilution, 8 points (20 μM-6.67 μM-2.22 μM-740 nM-247 nM-82 nM-27 nM-9 nM) in a final concentration of 1% DMSO. When potency of compound series increased, more dilutions are prepared and/or the top concentration was lowered (e.g. 5 μM, 1 μM).
Recombinant human JAK1 (catalytic domain, amino acids 866-1154; catalog number PV4774) was purchased from Invitrogen. 1 ng of JAK1 was incubated with 20 nM Ulight-JAK1 (tyr1023) peptide (Perkin Elmer catalog number TRF0121) in kinase reaction buffer (25 mM MOPS pH6.8, 0.01% Brij-35, 5 mM MgCl2, 2 mM DTT, 7 μM ATP) with or without 4 μL containing test compound or vehicle (DMSO, 1% final concentration), in a total volume of 20 μL, in a white 384 Opti plate (Perkin Elmer, catalog number 6007290). After 60 min at room temperature, reactions were stopped by adding 20 μL/well of detection mixture (1× detection buffer (Perkin Elmer, catalog number CR97-100C), 0.5 nM Europium-anti-phosphotyrosine (PT66) (Perkin Elmer, catalog number AD0068), 10 mM EDTA). Readout is performed using the Envision with excitation at 320 nm and measuring emission at 615 nm (Perkin Elmer). Kinase activity was calculated by subtracting relative fluorescence units (RFU) obtained in the presence of a positive control inhibitor (10 μM staurosporine) from RFU obtained in the presence of vehicle. The ability of a test compound to inhibit this activity was determined as: Percentage inhibition=((RFU determined for sample with test compound present−RFU determined for sample with positive control inhibitor) divided by (RFU determined in the presence of vehicle−RFU determined for sample with positive control inhibitor))*100.
(§3) Dose dilution series were prepared for the compounds enabling the testing of dose-response effects in the JAK1 assay and the calculation of the IC50 for the compound. Each compound is routinely tested at concentration of 20 μM followed by a 1/5 serial dilution, 10 points in a final concentration of 1% DMSO. When potency of compound series increases, more dilutions are prepared and/or the top concentration are lowered (e.g. 5 μM, 1 μM). […]

[2] = molecular target: T2, Recombinant human JAK2 catalytic domain (Homo sapiens, UniProt O60674); experiment: JAK2 inhibition assay (polyGT substrate / Ulight-JAK1 peptide assay); format: biochemical; conditions: Comparative Compounds (Table VIII)
T2 construct: Recombinant human JAK2 catalytic domain (amino acids 808-1132; catalog number PV4210); GST; purchased Invitrogen PV4210
Method: Recombinant human JAK2 catalytic domain (amino acids 808-1132; catalog number PV4210) was purchased from Invitrogen. 0.025 mU of JAK2 is incubated with […] polyGT substrate (Sigma catalog number P0275) in kinase reaction buffer (5 mM MOPS pH 7.5, 9 mM MgAc, 0.3 mM EDTA, 0.06% Brij and 0.6 mM DTT, 1 μM non-radioactive ATP, 0.25 μCi ^33P-gamma-ATP (GE Healthcare, catalog number AH9968) final concentrations) with or without 5 μL containing test compound or vehicle (DMSO, 1% final concentration), in a total volume of 25 μL, in a polypropylene 96-well plate (Greiner, V-bottom). After 90 min at 30° C., reactions are stopped by adding of 25 μL/well of 150 mM phosphoric acid. All of the terminated kinase reaction is transferred to prewashed (75 mM phosphoric acid) 96 well filter plates (Perkin Elmer catalog number 6005177) using a cell harvester (Perkin Elmer). Plates are washed 6 times with 300 μL per well of a 75 mM phosphoric acid solution and the bottom of the plates is sealed. 40 μL/well of Microscint-20 is added, the top of the plates is sealed and readout is performed using the Topcount (Perkin Elmer). Kinase activity is calculated by subtracting counts per min (cpm) obtained in the presence of a positive control inhibitor (10 μM staurosporine) from cpm obtained in the presence of vehicle. The ability of a test compound to inhibit this activity is determined as:
as §1
as §2, with “JAK2” for “JAK1”, “is” for “was”
Recombinant human JAK2 (catalytic domain, amino acids 866-1154; catalog number PV4210) was purchased from Invitrogen. 0.0125 mU of JAK2 was incubated with 25 nM Ulight-JAK1 (tyr1023) peptide (Perkin Elmer catalog number TRF0121) in kinase reaction buffer (25 mM HEPES pH7.0, 0.01% Triton X-100, 7.5 mM MgCl2, 2 mM DTT, 7.5 μM ATP) with or without 4 μL containing test compound or vehicle (DMSO, 1% final concentration), in a total volume of 20 μL, in a white 384 Opti plate (Perkin Elmer, catalog number 6007290). After 60 min at room temperature, reactions were stopped by adding 20 μL/well of detection mixture (1× detection buffer (Perkin Elmer, catalog number CR97-100C), 0.5 nM Europium-anti-phosphotyrosine (PT66) (Perkin Elmer, catalog number AD0068), 10 mM EDTA). Readout is performed using the Envision with excitation at 320 nm and measuring emission at 615 nm (Perkin Elmer). Kinase activity was calculated by subtracting relative fluorescence units (RFU) obtained in the presence of a positive control inhibitor (10 μM staurosporine) from RFU obtained in the presence of vehicle. The ability of a test compound to inhibit this activity was determined as: Percentage inhibition=((RFU determined for sample with test compound present−RFU determined for sample with positive control inhibitor) divided by (RFU determined in the presence of vehicle−RFU determined for sample with positive control inhibitor))*100.
as §3, with “series are” for “series were”, “for compound” for “for the compounds”, “the JAK2” for “the JAK1”

T1 sequence (P23458 866-1154): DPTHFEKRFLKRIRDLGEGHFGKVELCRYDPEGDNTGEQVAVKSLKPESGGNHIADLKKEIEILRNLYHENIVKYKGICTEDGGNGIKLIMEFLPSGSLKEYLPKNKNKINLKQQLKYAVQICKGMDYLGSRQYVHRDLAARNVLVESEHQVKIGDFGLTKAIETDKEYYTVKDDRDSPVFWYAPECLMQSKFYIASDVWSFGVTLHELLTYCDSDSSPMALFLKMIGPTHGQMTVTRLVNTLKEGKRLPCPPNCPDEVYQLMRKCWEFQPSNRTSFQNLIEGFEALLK
T2 sequence (O60674 808-1132): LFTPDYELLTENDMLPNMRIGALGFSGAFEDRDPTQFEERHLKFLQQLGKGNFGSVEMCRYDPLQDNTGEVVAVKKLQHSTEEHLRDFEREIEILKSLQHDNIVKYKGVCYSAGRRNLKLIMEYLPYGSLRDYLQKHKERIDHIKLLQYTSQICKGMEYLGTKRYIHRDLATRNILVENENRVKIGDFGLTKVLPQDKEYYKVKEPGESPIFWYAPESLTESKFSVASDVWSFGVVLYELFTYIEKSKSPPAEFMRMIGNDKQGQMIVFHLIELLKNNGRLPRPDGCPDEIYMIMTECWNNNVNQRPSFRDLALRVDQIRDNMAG

## Cn1cnc2ccc(Nc3ccc(CC#N)cc3)cc21 [A, 2-[4-[(3-methylbenzimidazol-5-yl)amino]phenyl]acetonitrile, reference compound]
[1]
  IC50: > 500 nM
[2]
  IC50: > 500 nM

## Cn1cnc2ccc(Nc3ccc4c(c3)OCCO4)cc21 [B, reference compound]
[1]
  IC50: > 500 nM
[2]
  IC50: > 500 nM
